Measurements taken from patent US20010018452A1 (published 2001).

| Compound | melting point [°C] |
| --- | --- |
| CON=C(C(=O)OC)c1cc(C)c(C)cc1COc1ccccc1C | 82 to 84 |
| CNC(=O)C(=NOC)c1cc(C)c(C)cc1C(ON)=C(C)c1cccc(C(F)(F)F)c1 | 129 to 134 |
